Reference: paper PMC10364322, “Evaluation of chronic drug-induced electrophysiological and cytotoxic effects using human-induced pluripotent stem cell-derived cardiomyocytes (hiPSC-CMs)” (Frontiers in Pharmacology, 2023)
Like-named read-outs stand apart in the source and are kept apart here.

Key:
[1] = tested on: hiPSC-CMs (iCell-Cardiomyocytes^2)
Method: (§1) Cells were seeded according to the instructions of the cell provider, in fibronectin-coated 48-well MEA plates (Axion Cytoview Plates, M768-tMEA-48B) at a density suited to form a monolayer (i.e., 50 K/well) and maintained in culture in a stage incubator (37°C, 5% CO2).
(§2) At least 4 h before the beginning of the baseline measurements, a full medium exchange was performed (to a final volume of 400 µL per well). Neat compounds were dissolved in 100% DMSO at a stock concentration 1000-fold the highest target concentration. […] Afterwards, these stock solutions were diluted with Maintenance medium (CDi), to 10-fold the intended concentration. The final DMSO concentration in test solutions and vehicle control was 0.1%.
(§3) Spontaneous electrical activity was recorded in hiPSC-CMs monolayers as field potentials using the Maestro Pro MEA instrument (Axion Biosystems, Atlanta, GA, United States), which allows the maintenance of accurate temperature and CO2 levels (37°C, 5% CO2). After the plate was placed in the Maestro Pro and allowed to equilibrate for about 10 min, baseline acquisition of field potential and impedance signals was initiated and lasted for 5 min each. […] As impedance measures resistance of an applied alternating current through the hiPSC-CMs monolayer, a reduction in the attachment of hiPSC-CMs to the bottom of the well due to cell death or changes in the monolayer morphology, causes a drop in the impedance signal.
The potential presence of various arrhythmic events was evaluated and noted during the data analysis.
(§4) After the acquisition of all timepoint measurements, raw data were loaded into the data analysis software Axion Cardiac Analysis Tool (V.3.2.3). […] A.csv file containing information on the FP parameters per well, per time point, was then generated and used as input to the in-house data management system (SPEcII v.3.4, Unlimit-IT, Geel, Belgium), where descriptive statistics were calculated. Summary values at different time points after compound addition are expressed as percent change from baseline and shown as mean ± standard deviation (SD).
(§5) The nonparametric Wilcoxon-Mann Whitney Test was used to compare the percent change from the baseline (Δ%) value between the group treated with the compound at a given concentration and the group treated with the DMSO at each matching time points. A two-sided test at 5% significance level was considered. […] To assess the physiological relevance of changes, a tolerance interval of DMSO experiments was calculated at each time point, for each parameter. […] TIs indicate an interval where, with a certain confidence level (1- α = 0.95), a specified proportion (p = 0.80) of percent change for DMSO data falls. The lower and upper limits based on the TI values were used as cut-offs for the interpretation of the changes. For the cytotoxicity assays, measurements of fluorescence (after background fluorescence subtraction) from wells treated with the compounds were normalized by the average value of vehicle experiments (DMSO 0.1%) to obtain a DMSO-corrected, delta/delta percent change. Experiments from each condition, as delta/delta percent, were averaged and expressed as mean ± SD. Statistical analysis was performed using a non-parametric test (Kruskal-Wallis) and each treatment condition was compared to the relative DMSO 0.1%. Differences were considered statistically significant when the p-value was smaller than 0.05.

[2] = tested on: hiPSC-CMs (iCell-Cardiomyocytes^2); test: MEA impedance (cytotoxicity readout) in hiPSC-CMs
Method: as §1, §2, §3, §4, §5

SMILES: O=C(O)COCCN1CCN(C(c2ccccc2)c2ccc(Cl)cc2)CC1 (centres unmarked) [Cetirizine]
- BR (beating rate), % change from baseline ([1]; 0.1 µM, 2h): 2±1%
- FPD (field-potential duration), % change from baseline ([1]; 0.1 µM, 2h): 3.2±0.7%
- FPDc (field-potential duration corrected by beat-rate), % change from baseline ([1]; 0.1 µM, 2h): 4.1±0.9%
- BR (beating rate), % change from baseline ([1]; 0.1 µM, 24h): 2±2%
- FPD (field-potential duration), % change from baseline ([1]; 0.1 µM, 24h): 8.9±2.4%
- FPDc (field-potential duration corrected by beat-rate), % change from baseline ([1]; 0.1 µM, 24h): 9.7±1.6%
- BR (beating rate), % change from baseline ([1]; 0.1 µM, 48h): -1±3%
- FPD (field-potential duration), % change from baseline ([1]; 0.1 µM, 48h): 8.3±2.5%
- FPDc (field-potential duration corrected by beat-rate), % change from baseline ([1]; 0.1 µM, 48h): 8±2.9%
- BR (beating rate), % change from baseline ([1]; 0.1 µM, 72h): 0±2%
- FPD (field-potential duration), % change from baseline ([1]; 0.1 µM, 72h): 7.8±1.4%
- FPDc (field-potential duration corrected by beat-rate), % change from baseline ([1]; 0.1 µM, 72h): 7.6±1.5%
- BR (beating rate), % change from baseline ([1]; 0.1 µM, 96h): -5±2%
- FPD (field-potential duration), % change from baseline ([1]; 0.1 µM, 96h): 8.9±2.9%
- FPDc (field-potential duration corrected by beat-rate), % change from baseline ([1]; 0.1 µM, 96h): 7.1±3.5%
- BR (beating rate), % change from baseline ([1]; 0.3 µM, 2h): 2±3%
- FPD (field-potential duration), % change from baseline ([1]; 0.3 µM, 2h): 2.9±2.5%
- FPDc (field-potential duration corrected by beat-rate), % change from baseline ([1]; 0.3 µM, 2h): 3.8±2.3%
- BR (beating rate), % change from baseline ([1]; 0.3 µM, 24h): 2±2%
- FPD (field-potential duration), % change from baseline ([1]; 0.3 µM, 24h): 12.5±1.8%
- FPDc (field-potential duration corrected by beat-rate), % change from baseline ([1]; 0.3 µM, 24h): 13±1.9%
- BR (beating rate), % change from baseline ([1]; 0.3 µM, 48h): -4±3%
- FPD (field-potential duration), % change from baseline ([1]; 0.3 µM, 48h): 12.1±2.3%
- FPDc (field-potential duration corrected by beat-rate), % change from baseline ([1]; 0.3 µM, 48h): 10.4±2.2%
- BR (beating rate), % change from baseline ([1]; 0.3 µM, 72h): -4±1%
- FPD (field-potential duration), % change from baseline ([1]; 0.3 µM, 72h): 9.2±4.1%
- FPDc (field-potential duration corrected by beat-rate), % change from baseline ([1]; 0.3 µM, 72h): 7.7±3.7%
- BR (beating rate), % change from baseline ([1]; 0.3 µM, 96h): -6±2%
- FPD (field-potential duration), % change from baseline ([1]; 0.3 µM, 96h): 10.3±1.1%
- FPDc (field-potential duration corrected by beat-rate), % change from baseline ([1]; 0.3 µM, 96h): 8.2±1.1%
- BR (beating rate), % change from baseline ([1]; 1 µM, 2h): 3±2%
- FPD (field-potential duration), % change from baseline ([1]; 1 µM, 2h): 3.3±5.6%
- FPDc (field-potential duration corrected by beat-rate), % change from baseline ([1]; 1 µM, 2h): 4.5±5%
- BR (beating rate), % change from baseline ([1]; 1 µM, 24h): 1±4%
- FPD (field-potential duration), % change from baseline ([1]; 1 µM, 24h): 19.3±18.2%
- FPDc (field-potential duration corrected by beat-rate), % change from baseline ([1]; 1 µM, 24h): 19.6±16.4%
- BR (beating rate), % change from baseline ([1]; 1 µM, 48h): -4±4%
- FPD (field-potential duration), % change from baseline ([1]; 1 µM, 48h): 20.8±13.7%
- FPDc (field-potential duration corrected by beat-rate), % change from baseline ([1]; 1 µM, 48h): 19±15%
- BR (beating rate), % change from baseline ([1]; 1 µM, 72h): -6±2%
- FPD (field-potential duration), % change from baseline ([1]; 1 µM, 72h): 17.3±16.7%
- FPDc (field-potential duration corrected by beat-rate), % change from baseline ([1]; 1 µM, 72h): 15.4±17.1%
- BR (beating rate), % change from baseline ([1]; 1 µM, 96h): -6±5%
- FPD (field-potential duration), % change from baseline ([1]; 1 µM, 96h): 19±15.6%
- FPDc (field-potential duration corrected by beat-rate), % change from baseline ([1]; 1 µM, 96h): 16.5±16.6%
- BR (beating rate), % change from baseline ([1]; 3 µM, 72h): -5±2%
- FPD (field-potential duration), % change from baseline ([1]; 3 µM, 72h): 12.9±3.8%
- FPDc (field-potential duration corrected by beat-rate), % change from baseline ([1]; 3 µM, 72h): 11.2±3%
- BR (beating rate), % change from baseline ([1]; 3 µM, 96h): -5±5%
- FPD (field-potential duration), % change from baseline ([1]; 3 µM, 96h): 14.4±6.3%
- FPDc (field-potential duration corrected by beat-rate), % change from baseline ([1]; 3 µM, 96h): 12.1±5%
- BR (beating rate), % change from baseline ([1]; 3 µM, 2h): 3±2%
- FPD (field-potential duration), % change from baseline ([1]; 3 µM, 2h): 4.9±3.1%
- FPDc (field-potential duration corrected by beat-rate), % change from baseline ([1]; 3 µM, 2h): 6.1±3.3%
- BR (beating rate), % change from baseline ([1]; 3 µM, 24h): 1±4%
- FPD (field-potential duration), % change from baseline ([1]; 3 µM, 24h): 14.6±2.3%
- FPDc (field-potential duration corrected by beat-rate), % change from baseline ([1]; 3 µM, 24h): 15.2±2.8 %
- BR (beating rate), % change from baseline ([1]; 3 µM, 48h): -5±2%
- FPD (field-potential duration), % change from baseline ([1]; 3 µM, 48h): 14.5±3.8%
- FPDc (field-potential duration corrected by beat-rate), % change from baseline ([1]; 3 µM, 48h): 12.5±3%
- Imp (impedance), % change from baseline ([2]; 0.1 µM, 2h): -4±4%
- Imp (impedance), % change from baseline ([2]; 0.1 µM, 24h): -8±1%
- Imp (impedance), % change from baseline ([2]; 0.1 µM, 48h): -7±2%
- Imp (impedance), % change from baseline ([2]; 0.1 µM, 72h): -7±3%
- Imp (impedance), % change from baseline ([2]; 0.1 µM, 96h): -7±4%
- Imp (impedance), % change from baseline ([2]; 0.3 µM, 2h): -3±3%
- Imp (impedance), % change from baseline ([2]; 0.3 µM, 24h): -8±2%
- Imp (impedance), % change from baseline ([2]; 0.3 µM, 48h): -5±4%
- Imp (impedance), % change from baseline ([2]; 0.3 µM, 72h): -5±6%
- Imp (impedance), % change from baseline ([2]; 0.3 µM, 96h): -5±6%
- Imp (impedance), % change from baseline ([2]; 1 µM, 2h): -4±2%
- Imp (impedance), % change from baseline ([2]; 1 µM, 24h): -7±5%
- Imp (impedance), % change from baseline ([2]; 1 µM, 48h): -4±7%
- Imp (impedance), % change from baseline ([2]; 1 µM, 72h): -5±6%
- Imp (impedance), % change from baseline ([2]; 1 µM, 96h): -4±9%
- Imp (impedance), % change from baseline ([2]; 3 µM, 72h): -8±7%
- Imp (impedance), % change from baseline ([2]; 3 µM, 96h): -6±7%
- Imp (impedance), % change from baseline ([2]; 3 µM, 2h): -3±2%
- Imp (impedance), % change from baseline ([2]; 3 µM, 24h): -7±4%
- Imp (impedance), % change from baseline ([2]; 3 µM, 48h): -3±6%
